Converted amounts (≈) assume the structure as drawn. Read-outs that look alike come from different tables or passages of the source.
What was measured:
[1] = Thermodynamic stability experiment in solvents at 60° C. (XRD); assay type: physicochemical; details: one day
Method: The crystalline form 1, crystalline form 2, crystalline form 3 and crystalline form 7 of the compound of formula I were mixed with acetone, ethyl acetate, methanol, water and tetrahydrofuran respectively, and then kept at 60° C. for one day for the investigation of the thermodynamic stability of each crystalline form. Insoluble solid was recovered by filtration and analyzed by XRD. Analysis conditions: Shimadzu XRD-6000, CuK source (1.54056 A) 40 kV, 30 mA; detection angle: 5-50°, speed: 5°/min.

[2] = Stability of the crystalline forms (HPLC, XRD, DSC); assay type: physicochemical; details: for HPLC Maximum single impurity %: retention time (min) in brackets; for crystalline form and melting point by XRD and DSC: sealed 80° C. 24 hours, open dish 25° C./60% RH and 40° C./75% RH for 7 days
Method: Experimental conditions: the samples were sealed and placed at 80° C. for 24 hours, and then placed in an open dish at 25° C./60% RH (relative humidity) and 40° C./75% RH for 7 days. Detection method: HPLC (only for the starting samples and samples placed at 80° C. for 24 hours), XRD, DSC.
In addition, the long-term stabilities of the crystalline form 1 for 12 months, 24 months, 36 months, and 48 months at 25° C./60% RH were also investigated.

[3] = Solubility determination in water by HPLC; assay type: physicochemical; details: suspension in water, 25° C.
Method: HPLC detection was performed using the crystalline form 1 as a standard, with its concentration of 204.2 μg*mL^−1 and its content set as 100%, and the detection was performed 7 times. The average peak area was 159.691 mAU*min (retention time was 7.4 min).

[4] = Solubility of crystalline forms 1 and 2 in various media; assay type: physicochemical
From the text: (§1) The moisture content, solubility and dissolution rate of the crystalline forms 1 and 2 were detected using the methods described above. The results are shown in Table 21, which indicate that the solubility, dissolution, and moisture content (total pharmaceutical properties) of the crystalline form 1 are higher than that of the crystalline form 2. Moreover, the crystalline forms 1 and 2 have the highest solubility in methanol.

[5] = Dissolution rate of crystalline forms 1 and 2; assay type: physicochemical
From the text: as §1

[6] = Dynamic vapor sorption (DVS) / moisture absorption; assay type: physicochemical
Method: (4) Dynamic Water Adsorption (DVS), TA Instruments Q5000 TGA; controlling software: Thermal Advantage; analysis software: Universal Analysis; sample plate: platinum crucible; amount of the sample to be detected: 1-10 mg; protective gas: nitrogen; gas flow fate: 10 mL/min; detection method: equilibration at 25° C., humidity: 0%, isothermal treatment: 90 min, weight change to be detected: from 0% RH to 80% RH;
as §1

[7] = Pharmacokinetic experiment, oral administration; assay type: in vivo, Sprague Dawley rats; details: rat, 10 mg/kg, suspension in 0.5% CMC
Method: Twelve Sprague Dawley rats with weight of 230-250 g were randomly divided into 2 groups, wherein each group consisted of 3 males and 3 females. Crystalline forms 1 and 2 were separately prepared as suspensions in 0.5% carboxymethylcellulose (CMC). The rats were fasted for 12 hours with free access to water and then orally administered at a dose of 10 mg/kg. Blood samples (0.2-0.3 ml) before and after 15, 30, 60, 120, 240, 360, 480, 720, 1440 minutes of the oral administration were collected in heparin anticoagulation tubes, which were then centrifuged to obtain plasma. The plasma was stored at −20° C., followed by analysis using API 4000 MS in conjunction with a HPLC unit. The pharmacokinetic parameters Cmax and AUC were calculated according to the determined plasma concentrations and summarized in Table 22.

[8] = Tissue accumulation experiment in tumor-bearing mice; assay type: in vivo, BALB/cA nude mice; set-up: content in Tumor / content in Liver / content in Kidney / content in Heart / content in Lung / content in Muscle / content in Brain: unit not given here; details: 40 mg/kg for 21 days (crystalline form 1 twice a day, sunitinib once a day); 4 hours after administration on day 22
Method: Human colon cancer H-29 cells were implanted into the armpits of BALB/cA nude mice. Seven days after the implantation of H-29 cells, 8 female mice were administered with the crystalline form 1 (twice a day) at 40 mg/kg or sunitinib at 40 mg/kg (once a day). The drug administration was continuous for 21 days. Plasma, tissue and tumor samples were collected for analysis 4 hours after the administration on the 22nd day morning.

[9] = acetone, ethyl acetate, methanol or water, conversion not complete in methanol

Cc1[nH]c(/C=C2\C(=O)Nc3ccc(F)cc32)c(C)c1C(=O)N[C@H]1CCN(C(=O)N(C)C)C1 [crystalline form 3, 5-[5-fluoro-2-oxo-1,2-dihydro-indole-(3Z)-ylidenemethyl]-2,4-dimethyl-1H-pyrrole-3-carboxylic acid ((S)-1-dimethylcarbamoyl-pyrrolidin-3-yl)-amide]
crystalline form recovered (XRD) [1, 9]: converted to crystalline form 2
crystalline form recovered (XRD) ([1]; tetrahydrofuran (THF)): to crystalline form 3
HPLC Purity % ([2]; 0 day (starting sample)): 99.14%
HPLC Maximum single impurity % ([2]; 0 day (starting sample)): 0.76 (4.73) %
crystalline form and melting point by XRD and DSC [2]: substantially unchanged
HPLC Purity % ([2]; sealed, 80° C./24 h): 98.32%
HPLC Maximum single impurity % ([2]; sealed, 80° C./24 h): 1.58 (4.73) %
concentration (solubility in water) ([3]; 0.5 hours): 0.58 µg/mL
concentration (solubility in water) ([3]; 4 hours): 0.77 µg/mL

Cc1[nH]c(/C=C2\C(=O)Nc3ccc(F)cc32)c(C)c1C(=O)N[C@H]1CCN(C(=O)N(C)C)C1 [crystalline form 7, 5-[5-fluoro-2-oxo-1,2-dihydro-indole-(3Z)-ylidenemethyl]-2,4-dimethyl-1H-pyrrole-3-carboxylic acid ((S)-1-dimethylcarbamoyl-pyrrolidin-3-yl)-amide]
crystalline form recovered (XRD) [1, 9]: converted to crystalline form 2
crystalline form recovered (XRD) ([1]; tetrahydrofuran (THF)): to crystalline form 3
HPLC Purity % ([2]; 0 day (starting sample)): 99.28%
HPLC Maximum single impurity % ([2]; 0 day (starting sample)): 0.58 (4.73) %
crystalline form and melting point by XRD and DSC [2]: substantially unchanged
HPLC Purity % ([2]; sealed, 80° C./24 h): 98.70%
HPLC Maximum single impurity % ([2]; sealed, 80° C./24 h): 1.19 (4.73) %
concentration (solubility in water) ([3]; 0.5 hours): 0.52 µg/mL
concentration (solubility in water) ([3]; 4 hours): 0.61 µg/mL

Cc1[nH]c(/C=C2\C(=O)Nc3ccc(F)cc32)c(C)c1C(=O)N[C@H]1CCN(C(=O)N(C)C)C1 [crystalline form 5, 5-[5-fluoro-2-oxo-1,2-dihydro-indole-(3Z)-ylidenemethyl]-2,4-dimethyl-1H-pyrrole-3-carboxylic acid ((S)-1-dimethylcarbamoyl-pyrrolidin-3-yl)-amide]
HPLC Purity % ([2]; 0 day (starting sample)): 99.86%
HPLC Maximum single impurity % ([2]; 0 day (starting sample)): 0.05 (8.82) %
crystalline form and melting point by XRD and DSC [2]: substantially unchanged
HPLC Purity % ([2]; sealed, 80° C./24 h): 98.80%
HPLC Maximum single impurity % ([2]; sealed, 80° C./24 h): 1.10 (4.73) %
concentration (solubility in water) ([3]; 0.5 hours): 1.66 µg/mL
concentration (solubility in water) ([3]; 4 hours): 0.42 µg/mL

Cc1[nH]c(/C=C2\C(=O)Nc3ccc(F)cc32)c(C)c1C(=O)N[C@H]1CCN(C(=O)N(C)C)C1 [crystalline form 2, 5-[5-fluoro-2-oxo-1,2-dihydro-indole-(3Z)-ylidenemethyl]-2,4-dimethyl-1H-pyrrole-3-carboxylic acid ((S)-1-dimethylcarbamoyl-pyrrolidin-3-yl)-amide]
crystalline form recovered (XRD) [1, 9]: converted to crystalline form 2
crystalline form recovered (XRD) ([1]; tetrahydrofuran (THF)): to crystalline form 3
Solubility ([4]; 1% Tween 80): 20 µg/mL (≈ 45.5 µM)
Solubility ([4]; 1% sodium lauryl sulfate): 580 µg/mL (≈ 1320 µM)
Solubility ([4]; 2% sodium lauryl sulfate): 950 µg/mL (≈ 2160 µM)
Solubility ([4]; PEG 400, organic solvent or mixture, thermodynamic from solid, PEG 400, read-out: Solubility): 2670 µg/mL (≈ 6080 µM)
Solubility ([4]; acetonitrile): 270 µg/mL (≈ 614 µM)
Solubility ([4]; aqueous solution with pH of 1.0-7.5): 0.0048 to 0.04 µg/mL
Solubility ([4]; ethanol, organic solvent or mixture, thermodynamic from solid, ethanol, read-out: Solubility): 1940 µg/mL (≈ 4410 µM)
Solubility ([4]; glycerin): 120 µg/mL (≈ 273 µM)
Solubility ([4]; methanol): 3500 µg/mL (≈ 7960 µM)
HPLC Purity % ([2]; 0 day (starting sample)): 97.76%
HPLC Maximum single impurity % ([2]; 0 day (starting sample)): 2.15 (4.73) %
crystalline form and melting point by XRD and DSC [2]: substantially unchanged
HPLC Purity % ([2]; sealed, 80° C./24 h): 98.95%
HPLC Maximum single impurity % ([2]; sealed, 80° C./24 h): 0.96 (4.73) %
Internal dissolution rate [5]: 0.0062 mg/(min · cm^2)
Moisture absorption ([6]; RH 50%): 0.064%
Moisture absorption ([6]; RH 80%): 0.112%
concentration (solubility in water) ([3]; 0.5 hours): 0.19 µg/mL
concentration (solubility in water) ([3]; 4 hours): 0.26 µg/mL
AUC(0-t) ([7]; female, Sprague Dawley, plasma, po, female 1, read-out: AUC(0-t)): 4340 ng·h/mL
Cmax ([7]; female, Sprague Dawley, plasma, po, female 1, read-out: Cmax): 317 ng/mL
AUC(0-t) ([7]; oral 10 mg/kg, average value): 3320.9 ng·h/mL
Cmax ([7]; oral 10 mg/kg, average value): 313.8 ng/mL
AUC(0-t) ([7]; oral 10 mg/kg, female 2): 3899.2 ng·h/mL
Cmax ([7]; oral 10 mg/kg, female 2): 451.4 ng/mL
AUC(0-t) ([7]; oral 10 mg/kg, female 3): 7850.6 ng·h/mL
Cmax ([7]; oral 10 mg/kg, female 3): 614.6 ng/mL
AUC(0-t) ([7]; oral 10 mg/kg, male 1): 1557.1 ng·h/mL
Cmax ([7]; oral 10 mg/kg, male 1): 204.4 ng/mL
AUC(0-t) ([7]; oral 10 mg/kg, male 2): 925.0 ng·h/mL
Cmax ([7]; oral 10 mg/kg, male 2): 114.7 ng/mL
AUC(0-t) ([7]; oral 10 mg/kg, male 3): 1349.3 ng·h/mL
Cmax ([7]; oral 10 mg/kg, male 3): 180.4 ng/mL

CCN(CC)CCNC(=O)c1c(C)[nH]c(/C=C2\C(=O)Nc3ccc(F)cc32)c1C [Sunitinib, reference compound]
content in Brain [8]: 333.9
content in Heart [8]: 3,881.2
content in Kidney [8]: 14,852.0
content in Liver [8]: 14,816.6
content in Lung [8]: 15,713.5
content in Muscle [8]: 1,483.2
content in Plasma [8]: 261.3
content in Tumor [8]: 27,137.2

Cc1[nH]c(/C=C2\C(=O)Nc3ccc(F)cc32)c(C)c1C(=O)N[C@H]1CCN(C(=O)N(C)C)C1 [crystalline form 6, 5-[5-fluoro-2-oxo-1,2-dihydro-indole-(3Z)-ylidenemethyl]-2,4-dimethyl-1H-pyrrole-3-carboxylic acid ((S)-1-dimethylcarbamoyl-pyrrolidin-3-yl)-amide]
HPLC Purity % ([2]; 0 day (starting sample)): 99.09%
HPLC Maximum single impurity % ([2]; 0 day (starting sample)): 0.80 (4.73) %
crystalline form and melting point by XRD and DSC [2]: substantially unchanged
HPLC Purity % ([2]; sealed, 80° C./24 h): 99.12%
HPLC Maximum single impurity % ([2]; sealed, 80° C./24 h): 0.78 (4.73) %
concentration (solubility in water) ([3]; 0.5 hours): 0.29 µg/mL
concentration (solubility in water) ([3]; 4 hours): 0.37 µg/mL
